Laboratory results: ChEMBL document CHEMBL1146077, “Synthesis and evaluation of heteroaryl-substituted dihydronaphthalenes and indenes: potent and selective inhibitors of aldosterone synthase (CYP11B2) for the treatment of congestive heart failure and myocardial fibrosis” (J Med Chem, 2006)

How the values were obtained:
[1] = molecular target: T1, Cytochrome P450 11B2, mitochondrial (Homo sapiens, UniProt P19099); experiment: Inhibition of human CYP11B2 expressed in Schizosaccharomyces pombe at 500 nM
T1 sequence (P19099 whole entry): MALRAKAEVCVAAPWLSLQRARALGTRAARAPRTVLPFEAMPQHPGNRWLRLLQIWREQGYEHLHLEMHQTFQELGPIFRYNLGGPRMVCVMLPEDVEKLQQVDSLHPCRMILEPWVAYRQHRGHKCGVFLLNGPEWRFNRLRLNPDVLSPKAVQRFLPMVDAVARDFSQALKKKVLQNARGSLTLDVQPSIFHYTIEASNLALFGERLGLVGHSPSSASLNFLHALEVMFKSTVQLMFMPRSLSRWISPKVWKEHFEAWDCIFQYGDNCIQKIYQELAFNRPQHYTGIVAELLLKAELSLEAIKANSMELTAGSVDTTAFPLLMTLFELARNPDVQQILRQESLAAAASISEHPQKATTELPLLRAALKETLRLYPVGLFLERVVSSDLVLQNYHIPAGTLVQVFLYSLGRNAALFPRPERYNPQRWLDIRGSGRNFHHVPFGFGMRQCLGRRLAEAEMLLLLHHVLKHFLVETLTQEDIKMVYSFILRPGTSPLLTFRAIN

[2] = molecular target: T2, Cytochrome P450 11B1, mitochondrial (Homo sapiens, UniProt P15538); experiment: Inhibition of human CYP11B1 expressed in V79 11B1 cells
T2 sequence (P15538 whole entry): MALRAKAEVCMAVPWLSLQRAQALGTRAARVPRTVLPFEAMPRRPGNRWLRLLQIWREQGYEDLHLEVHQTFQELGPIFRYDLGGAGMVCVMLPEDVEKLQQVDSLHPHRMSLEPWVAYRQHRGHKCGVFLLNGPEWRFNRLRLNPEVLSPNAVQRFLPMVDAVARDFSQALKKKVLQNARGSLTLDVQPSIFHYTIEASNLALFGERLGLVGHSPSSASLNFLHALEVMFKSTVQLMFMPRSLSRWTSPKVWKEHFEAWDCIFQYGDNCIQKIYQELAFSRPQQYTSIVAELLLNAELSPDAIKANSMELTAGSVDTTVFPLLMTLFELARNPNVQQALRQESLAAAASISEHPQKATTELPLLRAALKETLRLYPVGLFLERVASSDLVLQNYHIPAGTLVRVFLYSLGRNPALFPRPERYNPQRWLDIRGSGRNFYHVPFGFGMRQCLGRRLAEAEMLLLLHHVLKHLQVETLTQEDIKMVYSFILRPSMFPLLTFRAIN

[3] = molecular target: T1, Cytochrome P450 11B2, mitochondrial; experiment: Inhibition of human CYP11B2 expressed in V79 11B2 cells
[4] = Permeability in Caco-2 cell; conditions: human
[5] = Half life in rat liver microsome; type: ADME; conditions: liver microsomes

| SMILES | inhibition at 0.5 µM [1] | IC50 [2] | IC50 [3] | Papp [4] | half-life [5] |
| --- | --- | --- | --- | --- | --- |
| CCC1CC(c2cccnc2)=Cc2ccccc21 (stereo not given) | 20% | 1620 nM | 176 nM |  |  |
| C(=C/c1cccnc1)/c1ccccc1 | 54% | 288 nM | 735 nM |  |  |
| COc1ccc2c(c1)C=C(c1cccnc1)CC2 |  |  | 45 nM |  |  |
| COc1ccc2c(c1)CCC(c1cccnc1)=C2 | 98% |  |  | 13.5 ×10⁻⁶ cm/s | 1.12 h |
| COc1ccc2c(c1)CCC(n1ccnc1)=C2 |  |  | 411 nM |  |  |
| C(=C\c1cccnc1)/c1ccccc1 | 25% |  |  |  |  |
| C1=C(n2ccnc2)CCc2ccccc21 |  |  | 334 nM |  |  |
| C1=C(n2ccnc2)Cc2ccccc21 | 33% |  | 448 nM |  |  |
| COc1ccc2c(c1)CCC(c1ccncc1)=C2 | 15% | 2530 nM | 2830 nM |  |  |
| CC(C(=O)O)c1cccc(C(=O)c2ccccc2)c1 (stereo not given) [KETOPROFEN] |  |  |  | 25.7 ×10⁻⁶ cm/s |  |
| C[C@]12CC[C@H]3[C@@H](CCC4=CC(=O)CC[C@@]43C)[C@@H]1CC[C@@H]2O [TESTOSTERONE] |  |  |  | 9.4 ×10⁻⁶ cm/s |  |
